Where “and” joins values, the source holds several entries; their conditions need not be identical. Equal entries are not always repeated.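 Test compounds were applied to cells in 96-well plates for 48 hours at 5 doses. Here, GI50 denotes the concentration required for 50% inhibition of growth. TGI denotes the concentration required for complete inhibition of growth.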
Columns and labels:
Assay in all cases: NCI anticancer screen, dose series, 48 h
[1] = system: 786-0 renal
[2] = system: A498 renal
[3] = system: A549 NSCLC
[4] = system: ACHN renal
[5] = system: BT-549 breast
[6] = system: CAKI-1 renal
[7] = system: CCRF-CEM leukemia
[8] = system: COLO 205 colon
[9] = system: DU-145 prostate
[10] = system: EKVX NSCLC
[11] = system: HCT-116 colon
[12] = system: HCT-15 colon
[13] = system: HL-60(TB) leukemia
[14] = system: HOP-62 NSCLC
[15] = system: HOP-92 NSCLC
[16] = system: HS 578T breast
[17] = system: HT29 colon
[18] = system: IGROV1 ovarian
[19] = system: K-562 leukemia
[20] = system: KM12 colon
[21] = system: LOX IMVI melanoma
[22] = system: M14 melanoma
[23] = system: MCF7 breast
[24] = system: MDA-MB-231 breast
[25] = system: MDA-MB-435
[26] = system: MDA-N
[27] = system: MOLT-4 leukemia
[28] = system: NCI-H226 lung
[29] = system: NCI-H23 lung
[30] = system: NCI-H460 lung
[31] = system: NCI/ADR-RES ovarian
[32] = system: OVCAR-3 ovarian
[33] = system: OVCAR-5 ovarian
[34] = system: OVCAR-8 ovarian
[35] = system: PC-3 prostate
[36] = system: RPMI-8226 leukemia
[37] = system: SF-268 CNS
[38] = system: SF-295 CNS
[39] = system: SF-539 CNS
[40] = system: SK-MEL-2 melanoma
[41] = system: SK-MEL-28 melanoma
[42] = system: SK-MEL-5 melanoma
[43] = system: SK-OV-3 ovarian
[44] = system: SN12C renal
[45] = system: SNB-19 CNS
[46] = system: SNB-75 CNS
[47] = system: SR leukemia
[48] = system: SW-620 colon
[49] = system: T-47D breast
[50] = system: TK-10 renal
[51] = system: U251 CNS
[52] = system: UACC-257 melanoma
[53] = system: UACC-62 melanoma
[54] = system: UO-31 renal
[55] = system: MALME-3M melanoma
[56] = system: NCI-H522 lung
[57] = system: OVCAR-4 ovarian
[58] = system: RXF 393 renal

SMILES: O=c1[nH]c(N/N=C\C(O)C(O)C(O)CO)nc2ccccc12 (stereo not given)
- TGI [1]: > 100 µM
- TGI [2]: > 100000 nM
- TGI [3]: > 100 µM
- TGI [4]: > 100 µM
- TGI [5]: > 100000 nM
- TGI [6]: > 100 µM
- TGI [7]: > 100000 nM
- TGI [8]: > 100000 nM
- TGI [9]: > 100 µM
- TGI [10]: > 100 µM
- TGI [11]: > 100 µM
- TGI [12]: > 100 µM
- TGI [13]: > 100000 nM
- TGI [14]: > 100 µM
- TGI [15]: > 100000 nM
- TGI [16]: > 100000 nM
- TGI [17]: > 100 µM
- TGI [18]: > 100 µM
- TGI [19]: > 100000 nM
- TGI [20]: > 100000 nM
- TGI [21]: > 100 µM
- TGI [22]: > 100000 nM
- TGI [23]: > 100 µM
- GI50 [24]: > 100 µM and 47.7 µM
- TGI [24]: > 100000 nM
- TGI [25]: > 100000 nM
- TGI [26]: > 100000 nM
- TGI [27]: > 100000 nM
- TGI [28]: > 100000 nM
- TGI [29]: > 100000 nM
- TGI [30]: > 100 µM
- TGI [31]: > 100 µM
- TGI [32]: > 100000 nM
- TGI [33]: > 100 µM
- TGI [34]: > 100000 nM
- TGI [35]: > 100 µM
- TGI [36]: > 100 µM
- TGI [37]: > 100 µM
- TGI [38]: > 100 µM
- TGI [39]: > 100000 nM
- TGI [40]: > 100000 nM
- TGI [41]: > 100000 nM
- TGI [42]: > 100000 nM
- TGI [43]: > 100 µM
- TGI [44]: > 100 µM
- TGI [45]: > 100 µM
- TGI [46]: > 100000 nM
- TGI [47]: > 100000 nM
- TGI [48]: > 100 µM
- TGI [49]: > 100000 nM
- TGI [50]: > 100000 nM
- TGI [51]: > 100 µM
- TGI [52]: > 100000 nM
- TGI [53]: > 100000 nM
- TGI [54]: > 100 µM

SMILES: COc1c(C)c(OC)c2c(c1O)[C@@H]1[C@@H]3Cc4c(OC)c(C)c(OC)c(O)c4[C@H](CNC(=O)c4cnc5ccccc5n4)N3[C@@H](C#N)[C@H](C2)N1C
- TGI [1]: > 0.1 µM
- TGI [2]: 8.94 nM
- TGI [3]: > 0.1 µM
- TGI [4]: > 0.0414 µM
- TGI [5]: 20 nM
- TGI [6]: > 0.0391 µM
- TGI [7]: 5.4 nM
- TGI [8]: 11.4 nM
- TGI [9]: > 0.0206 µM
- TGI [10]: > 0.00703 µM
- TGI [11]: > 0.1 µM
- TGI [12]: > 0.0716 µM
- TGI [13]: 5.54 nM
- TGI [14]: > 0.1 µM
- TGI [15]: 12.9 nM
- TGI [16]: 19.2 nM
- TGI [19]: 18 nM
- TGI [20]: 3.82 nM
- TGI [21]: > 0.0273 µM
- TGI [22]: 5.68 nM
- TGI [55]: 4.58 nM
- TGI [23]: > 0.1 µM
- TGI [24]: 32 nM
- TGI [25]: 6.22 nM
- TGI [26]: 3.62 nM
- TGI [27]: 2.62 nM
- TGI [28]: 6.22 nM
- TGI [29]: 12.1 nM
- TGI [30]: > 0.1 µM
- TGI [56]: 5.16 nM
- TGI [31]: > 0.1 µM
- TGI [32]: 16.8 nM
- TGI [57]: 8.98 nM
- TGI [33]: > 0.1 µM
- TGI [34]: 21.2 nM
- TGI [35]: > 0.0556 µM
- TGI [58]: > 36.8 nM
- TGI [37]: > 0.1 µM
- TGI [38]: > 0.0294 µM
- TGI [39]: 10.4 nM
- TGI [40]: 7.33 nM
- TGI [41]: 7.33 nM
- TGI [42]: 18.7 nM
- TGI [43]: > 0.0445 µM
- TGI [44]: > 0.0718 µM
- TGI [45]: > 0.0533 µM
- TGI [46]: 5.52 nM
- TGI [47]: 1.4 nM
- TGI [48]: > 0.0313 µM
- TGI [49]: 6.76 nM
- TGI [50]: 24.8 nM
- TGI [51]: > 0.0361 µM
- TGI [52]: 7.56 nM
- TGI [53]: 3.46 nM
- TGI [54]: > 0.0423 µM
